In paper PMC7449217, “The FDA-Approved Drug Nelfinavir Inhibits Lytic Cell-Free but Not Cell-Associated Nonlytic Transmission of Human Adenovirus” (Antimicrobial Agents and Chemotherapy, 2020):
pEC50: −log10 of the molar value. Where a name gives a salt, the structure may show the parent alone.

Experiments:
Test in all cases: fluorescence-based plaque-forming assay, A549 cells
Assay type in all cases: cell-based, human adenovirus
HAdV-A31 = test system: HAdV-A31
Description: (§1) Per 96-well plate, 15,000 A549 cells, 10,000 HeLa cells, 30,000 HBECs, 30,000 HCE cells, or 30,000 CMT-93 cells were seeded in 100 μl of the respective supplemented medium and allowed to settle for 1 h at room temperature (RT) prior to cell culture incubation at 37°C with 5% CO2 and 95% humidity. The following day, the medium was replaced with 50 μl of the respective virus stock dilution giving rise to 5 to 50 plaques per 96-well plate. Fifty microliters of nelfinavir to obtain a 0.1 to 50 μM final concentration or the DMSO solvent control was also added, both in supplemented medium. For each experiment, a noninfected, treated control was performed. For uphill plaque assays, the medium volume was increased to 150 μl with identical virus and drug concentrations. For wash-in/washout experiments, the virus was incubated on cells in supplemented medium for 1 h at 37°C, cells were washed with PBS, and a 100-μl drug dilution in supplemented medium was added. All experiments were performed in four technical replicates or as indicated. Cells were incubated under standard cell culture conditions. At the indicated times postinfection, the cells were fixed, and the nuclei were stained for 1 h at RT by the addition of 33 μl 16% (wt/vol) paraformaldehyde (PFA) and 4 μg/ml Hoechst 33342 (Sigma-Aldrich, St. Louis, MO, USA) in PBS. Cells were washed three times with PBS and stored in PBS supplemented with 0.02% N3 for infections with viruses harboring a GFP transgene. For wild-type (wt) viruses, cells were quenched in PBS supplemented with 50 mM NH4Cl, permeabilized using 0.2% (vol/vol) Triton X-100 in PBS, and blocked with 0.5% (wt/vol) bovine serum albumin (BSA) in PBS. Cells were incubated with 381.7 ng/ml mouse anti-HAdV hexon protein antibody (Mab8052; Sigma-Aldrich, St. Louis, MO, USA) and subsequently stained using 2 μg/ml goat anti-mouse-Alexa Fluor 594 (catalog number A21203 or A32742; Thermo Fisher Scientific, Waltham, MA, USA). Plates were imaged on either an IXM-XL or an IXM-C automated high-throughput fluorescence microscope (Molecular Devices, San Jose, CA, USA) using a 4× objective in wide-field mode. Hoechst staining was recorded in the 4′,6-diamidino-2-phenylindole (DAPI) channel, the fluorescein isothiocyanate (FITC)/GFP channel was acquired for viral GFP, and the tetramethyl rhodamine isothiocyanate (TRITC)/Texas Red channel was acquired for hexon immunofluorescence staining.
(§2) The infection phenotype for each well was quantified using Plaque2.0 ([101]). The number of plaques was determined based on the infection signal (viral GFP or hexon immunofluorescence staining). Nuclei stained with Hoechst were segmented by using CellProfiler ([178]). Infected nuclei were classified based on the median infection signal per nucleus in CellProfiler. Data were plotted, and the EC50 (infected and treated cells), the TC50 (noninfected, treated cells), as well as the corresponding standard errors (SE) were determined using curve fitting in GraphPad (version 8.1.2; GraphPad Software, Inc.) using three-parameter inhibitor concentration-versus-response nonlinear regression. The mean TI50 was calculated as the […] ratio of the means. The TI50 SE was calculated by error propagation.

HAdV-B14 = test system: HAdV-B14
Description: as §1, §2

HAdV-B16 = test system: HAdV-B16
Description: as §1, §2

HAdV-B21a = test system: HAdV-B21a
Description: as §1, §2

HAdV-B3-pIX-FS2A-GFP = test system: HAdV-B3-pIX-FS2A-GFP
Description: as §1, §2

HAdV-B7 = settings: for TI50 (TC50/IC50): HAdV-B7 in A549, 4 dpi, Hexon
Description: as §1, §2

HAdV-C2-dE3B-GFP-dADP = settings: for pEC50: Human adenovirus sp., plaque numbers
Description: as §1, §2

HAdV-C5 = test system: HAdV-C5
Description: as §1, §2

HAdV-C6 = test system: HAdV-C6
Description: as §1, §2

dl712 (HAdV-C5/2-dADP) = test system: dl712 (HAdV-C5/2-dADP)
Description: as §1, §2

Structure (SMILES): Cc1c(O)cccc1C(=O)N[C@@H](CSc1ccccc1)[C@H](O)CN1C[C@H]2CCCC[C@H]2C[C@H]1C(=O)NC(C)(C)C [Nelfinavir, Nelfinavir mesylate]
- TI50 (TC50/IC50) (HAdV-A31; HAdV-A31 in A549, 6 dpi, Hexon): 1.35
- pEC50 (HAdV-A31; Human adenovirus sp., HAdV-A31 in A549, fixation 6 dpi, read-out Hexon, plaque numbers): 4.85
- TI50 (TC50/IC50) (HAdV-B14; HAdV-B14 in A549, 3 dpi, Hexon): 14.22
- pEC50 (HAdV-B14; Human adenovirus sp., HAdV-B14 in A549, fixation 3 dpi, read-out Hexon, plaque numbers): 6.08
- TI50 (TC50/IC50) (HAdV-B16; HAdV-B16 in A549, 4 dpi, Hexon): 1.66
- pEC50 (HAdV-B16; Human adenovirus sp., HAdV-B16 in A549, fixation 4 dpi, read-out Hexon, plaque numbers): 4.91
- TI50 (TC50/IC50) (HAdV-B21a; HAdV-B21a in A549, 4 dpi, Hexon): 1.27
- pEC50 (HAdV-B21a; Human adenovirus sp., HAdV-B21a in A549, fixation 4 dpi, read-out Hexon, plaque numbers): 4.79
- TI50 (TC50/IC50) (HAdV-B3-pIX-FS2A-GFP; HAdV-B3-pIX-FS2A-GFP in A549, 3 dpi, Hexon): 1.50
- pEC50 (HAdV-B3-pIX-FS2A-GFP; Human adenovirus sp., A549): 4.99
- TI50 (TC50/IC50) (HAdV-B7): 0.75
- TI50 (TC50/IC50) (HAdV-B7; listed as nelfinavir): < 1
- pEC50 (HAdV-B7; Human adenovirus sp., HAdV-B7 in A549, fixation 4 dpi, read-out Hexon, plaque numbers): 4.77
- TI50 (TC50/IC50) (HAdV-C2-dE3B-GFP-dADP; HAdV-C2-dE3B-GFP-dADP in A549, 4 dpi, GFP): 2.11
- TI50 (TC50/IC50) (HAdV-C2-dE3B-GFP-dADP; HAdV-C2-dE3B-GFP-dADP in A549, 4 dpi, GFP, listed as nelfinavir): 2.1
- TI50 (TC50/IC50) (HAdV-C2-dE3B-GFP-dADP; HAdV-C2-dE3B-GFP-dADP in A549, 5 dpi, GFP): 6.73
- TI50 (TC50/IC50) (HAdV-C2-dE3B-GFP-dADP; HAdV-C2-dE3B-GFP-dADP in A549, 5 dpi, Hexon): 5.20
- pEC50 (HAdV-C2-dE3B-GFP-dADP; A549, HAdV-C2-dE3B-GFP-dADP in A549, fixation 4 dpi (96 hpi), read-out GFP): 5.24
- pEC50 (HAdV-C2-dE3B-GFP-dADP; A549, HAdV-C2-dE3B-GFP-dADP in A549, fixation 5 dpi, read-out GFP): 5.65
- pEC50 (HAdV-C2-dE3B-GFP-dADP; A549, HAdV-C2-dE3B-GFP-dADP in A549, fixation 5 dpi, read-out Hexon): 5.54
- TI50 (TC50/IC50) (HAdV-C5; HAdV-C5 in A549, 3 dpi, VI): 21.01
- pEC50 (HAdV-C5; Human adenovirus sp., HAdV-C5 in A549, fixation 3 dpi, read-out VI, plaque numbers): 6.24
- TI50 (TC50/IC50) (HAdV-C6; HAdV-C6 in A549, 3 dpi, Hexon): 35.14
- pEC50 (HAdV-C6; Human adenovirus sp., HAdV-C6 in A549, fixation 3 dpi, read-out Hexon, plaque numbers): 6.22
- pEC50 (dl712 (HAdV-C5/2-dADP); Human adenovirus sp., A549): 5.16
- TI50 (TC50/IC50) (dl712 (HAdV-C5/2-dADP); dl712 (HAdV-C5/2-dADP) in A549, 5 dpi, Hexon): 2.18
